# Data taken from patent US20240132484A1, “BROAD SPECTRUM ANTIVIRAL COMPOUNDS TARGETING THE SKI COMPLEX” (priority 2020, published 2024).
# Values joined by “and” are separate entries in the source; they are usually repeats but may differ in a detail not shown here. Equal values may be shown once. “Also recorded” adds a separate entry of the source. Read-outs that look alike come from different tables or passages of the source.
# Columns and labels:
# WDR61 = WDR61 (Homo sapiens, UniProt Q9GZS3); test: Surface Plasmon Resonance with pure WDR61 protein
# cells (nuclei count) = conditions: for Toxicity Data, Average, Mean: average of Exp 1-3 (SMW475, SMW477, SMW478)
# SARS2 = format: cell-based, SARS-CoV-2; conditions: for Percentage Infection Relative to Appropriate DMSO Control with Avg Background Subtraction: Greiner Celigo plates; for Infection Data, Average, Mean: average of Exp 1-3 (SMW475, SMW477, SMW478)
# MERS-CoV = test: microbe, parasite or virus in culture; format: cell-based; conditions: Middle East respiratory syndrome-related coronavirus, Huh-7, 24 h, read-out: IC50 against MERS-CoV
# Influenza virus = test: organism not typed; format: cell-based, influenza A virus; conditions: for time of addition: inhibition of IAV when drug added 2 h after infection: +2 h versus -2 h and 0 h; for IC50: A549, 24 h, read-out: IC50 against IAV; for antiviral activity against IAV infection: screening, A549 cells
# SARS-CoV = format: cell-based; conditions: 24 h
# [1] = system: SARS-CoV-2 mRNA (N, RdRp); format: cell-based; conditions: two gene targets (N, RdRp)
# IAV NS1 mRNA = format: cell-based, influenza A virus
# SARS-CoV-2 = format: cell-based
# IAV RNA = test: Multi-segment RT-PCR (M-RTPCR) of IAV segments in A549 cells; format: cell-based, influenza A virus
# IAV NS1 protein = format: cell-based, influenza A virus
# [2] = system: Ebola virus Makona strain (EBOV); test: microbe, parasite or virus in culture; format: cell-based; conditions: Zaire ebolavirus, Huh-7, 48 h, read-out: IC50 against EBOV
# A549 cells = conditions: antiviral concentrations, 24 h
# [3] = system: Marburg virus Angola strain (MARV); test: organism not typed; format: cell-based; conditions: Huh-7, 48 h, read-out: IC50 against MARV
# Huh7 cells = conditions: antiviral concentrations, 24 h
structure (smiles),measurement,setting,value
CN(C)CCN(Cc1cocn1)Cc1cccs1 [SILCS35],direct binding to WDR61 by SPR,WDR61,binding directly to WDR61
same,"Relative cell count to DMSO controls, Average 1 μM","cells (nuclei count); 1 μM, toxicity data, 100=DMSO control",105.31
same,"Relative cell count to DMSO controls, Average 5 μM","cells (nuclei count); 5 μM, toxicity data, 100=DMSO control",100.64
same,"Relative cell count to DMSO controls, Average 10 μM","cells (nuclei count); 10 μM, toxicity data, 100=DMSO control",89.77
same,"Relative cell count to DMSO controls, Average 25 μM","cells (nuclei count); 25 μM, toxicity data, 100=DMSO control",93.31
same,"Relative cell count to DMSO controls, Average 50 μM","cells (nuclei count); 50 μM, toxicity data, 100=DMSO control",60.5
same,"Toxicity Data, Average, Mean","cells (nuclei count); n 9, 1 uM",105.31%
same,"Toxicity Data, Average, Mean","cells (nuclei count); n 9, 5 uM",100.64%
same,"Toxicity Data, Average, Mean","cells (nuclei count); n 9, 10 uM",89.77%
same,"Toxicity Data, Average, Mean","cells (nuclei count); n 9, 25 uM",93.31%
same,"Toxicity Data, Average, Mean","cells (nuclei count); n 9, 50 uM",60.50%
same,"Relative cell count to DMSO controls, Average (for correlation analysis)",cells (nuclei count); average value over the 5 tested concentrations (1 to 50 uM),89.91
same,Percentage Infection Relative to Appropriate DMSO Control with Avg Background Subtraction,"SARS2; Exp 1 (SMW475), 1 uM",90.30% and 94.24% and 95.59%
same,Percentage Infection Relative to Appropriate DMSO Control with Avg Background Subtraction,"SARS2; Exp 1 (SMW475), 5 uM",93.18% and 101.74% and 91.54%
same,Percentage Infection Relative to Appropriate DMSO Control with Avg Background Subtraction,"SARS2; Exp 1 (SMW475), 10 uM",105.47% and 116.87% and 111.43%
same,Percentage Infection Relative to Appropriate DMSO Control with Avg Background Subtraction,"SARS2; Exp 1 (SMW475), 25 uM",79.86% and 56.98% and 87.77%
same,Percentage Infection Relative to Appropriate DMSO Control with Avg Background Subtraction,"SARS2; Exp 1 (SMW475), 50 uM",83.26% and 106.28% and 78.51%
same,Percentage Infection Relative to Appropriate DMSO Control with Avg Background Subtraction,"SARS2; Exp 2 (SMW477), 1 uM",131.21% and 119.10% and 117.97%
same,Percentage Infection Relative to Appropriate DMSO Control with Avg Background Subtraction,"SARS2; Exp 2 (SMW477), 5 uM",138.25% and 128.36% and 147.80%
same,Percentage Infection Relative to Appropriate DMSO Control with Avg Background Subtraction,"SARS2; Exp 2 (SMW477), 10 uM",155.83% and 113.76% and 119.79%
same,Percentage Infection Relative to Appropriate DMSO Control with Avg Background Subtraction,"SARS2; Exp 2 (SMW477), 25 uM",125.42% and 107.58% and 104.40%
same,Percentage Infection Relative to Appropriate DMSO Control with Avg Background Subtraction,"SARS2; Exp 2 (SMW477), 50 uM",109.53% and 98.67% and 105.03%
same,Percentage Infection Relative to Appropriate DMSO Control with Avg Background Subtraction,"SARS2; Exp 3 (SMW478), 1 uM",105.76% and 80.57% and 90.16%
same,Percentage Infection Relative to Appropriate DMSO Control with Avg Background Subtraction,"SARS2; Exp 3 (SMW478), 5 uM",134.19% and 78.79% and 94.59%
same,Percentage Infection Relative to Appropriate DMSO Control with Avg Background Subtraction,"SARS2; Exp 3 (SMW478), 10 uM",151.59% and 95.94% and 77.50%
same,Percentage Infection Relative to Appropriate DMSO Control with Avg Background Subtraction,"SARS2; Exp 3 (SMW478), 25 uM",126.08% and 121.76% and 139.01%
same,Percentage Infection Relative to Appropriate DMSO Control with Avg Background Subtraction,"SARS2; Exp 3 (SMW478), 50 uM",140.10% and 158.92% and 157.74%
same,Percentage Inhibition Average 1 μM,"SARS2; SARS2, 1 μM",−2.77%
same,Screening data (Relative infection to DMSO controls) Average 1 μM,"SARS2; SARS2, 1 μM, 100=DMSO control",102.77
same,Percentage Inhibition Average 5 μM,"SARS2; SARS2, 5 μM",−12.05%
same,Screening data (Relative infection to DMSO controls) Average 5 μM,"SARS2; SARS2, 5 μM, 100=DMSO control",112.05
same,Percentage Inhibition Average 10 μM,"SARS2; SARS2, 10 μM",−16.46%
same,Screening data (Relative infection to DMSO controls) Average 10 μM,"SARS2; SARS2, 10 μM, 100=DMSO control",116.46
same,Percentage Inhibition Average 25 μM,"SARS2; SARS2, 25 μM",−5.43%
same,Screening data (Relative infection to DMSO controls) Average 25 μM,"SARS2; SARS2, 25 μM, 100=DMSO control",105.43
same,Percentage Inhibition Average 50 μM,"SARS2; SARS2, 50 μM",−15.34%
same,Screening data (Relative infection to DMSO controls) Average 50 μM,"SARS2; SARS2, 50 μM, 100=DMSO control",115.34
same,Average (relative infection to DMSO over the 5 tested concentrations),"SARS2; SARS2, average over 1 to 50 uM, 100=DMSO control",110.41
same,"Infection Data, Average, Mean","SARS2; n 9, 1 uM",102.77%
same,"Infection Data, Average, Mean","SARS2; n 9, 5 uM",112.05%
same,"Infection Data, Average, Mean","SARS2; n 9, 10 uM",116.46%
same,"Infection Data, Average, Mean","SARS2; n 9, 25 uM",105.43%
same,"Infection Data, Average, Mean","SARS2; n 9, 50 uM",115.34%
COc1ccc(CNCCc2ccccc2C)c(OCC(O)CN2CCN(C)CC2)c1 (stereo not shown) [UMB18-2],IC50,MERS-CoV,~5 µM
same,time of addition: inhibition of IAV when drug added 2 h after infection,Influenza virus,marked reduction in the level of inhibition
same,IC50,Influenza virus,~5 µM
same,antiviral activity against IAV infection,Influenza virus,capable of inhibiting IAV infection
same,inhibition of SARS-CoV,SARS-CoV; 10 μM,"inhibition, but to a lesser extent"
same,reduction in virus production,SARS-CoV; 50 μM,1 log
same,SARS-CoV-2 mRNA production,[1],capable of inhibiting SARS-CoV-2 mRNA production
same,IAV NS1 mRNA,IAV NS1 mRNA,marked reduction in mRNA
same,inhibition of SARS-CoV-2 virus production by TCID50,SARS-CoV-2,capable of inhibiting virus production; also recorded: less so
same,IAV RNA amplified by M-RTPCR,IAV RNA,total loss of IAV RNA
same,NS1 protein by western blot,IAV NS1 protein,lack of NS1 protein
"COc1ccc(CNCCc2ccccc2F)c(OCC(O)CN2CCN(C)CC2)c1 (stereo not shown) [UMB18, 1-[2-({[2-(2-fluorophenyl)ethyl]amino}methyl)-5-methoxyphenoxy]-3-(4-methyl-1-piperazinyl)-2-propanol]",IC50,[2],~5 µM
same,IC50,MERS-CoV,~5 µM
same,"10 μM treatment, Average","Influenza virus; 10 μM treatment, average of replicates",11250 and 1250 and 2000 and 18000
same,10 μM treatment,"Influenza virus; 10 μM treatment, replicate 2",12000 and 1000 and 35000
same,10 μM treatment,"Influenza virus; 10 μM treatment, replicate 3",1000 and 2000
same,10 μM treatment,"Influenza virus; 10 μM treatment, replicate 4",5000 and 1000
same,50 μM treatment Average,"Influenza virus; 50 μM compound, average of replicates",1000 and 333.3 and 0 (2×)
same,50 μM treatment,"Influenza virus; 50 μM compound, replicate 1, DMSO (0.5%) control run per batch",0
same,50 μM treatment,"Influenza virus; 50 μM compound, replicate 2",3000 and 0 (2×)
same,50 μM treatment (third value column),"Influenza virus; 50 μM compound, replicate 3",0 and 1000
same,50 μM treatment (fourth value column),"Influenza virus; 50 μM compound, replicate 4",1000
same,time of addition: inhibition of IAV when drug added 2 h after infection,Influenza virus,marked reduction in the level of inhibition
same,IC50,Influenza virus,~5 µM
same,antiviral activity against IAV infection,Influenza virus,showed antiviral activity against influenza
same,toxicity by CellTiter-Glo assay,A549 cells,minimal toxicity
same,IAV NS1 mRNA,IAV NS1 mRNA,marked reduction in mRNA
same,IC50,[3],~16 µM
same,toxicity by CellTiter-Glo assay,Huh7 cells,minimal toxicity
same,NS1 protein by western blot,IAV NS1 protein,lack of NS1 protein
